Test results from ChEMBL document CHEMBL3727364, “Resorcinol n-aryl amide compounds, for use as pyruvate dehydrogenase kinase inhibitors” (2015).

Legend:
[1] = molecular target: Pyruvate dehydrogenase kinase (Homo sapiens, UniProt Q15119+Q15120+Q16654+Q15118); experiment: Inhibition of pyruvate dehydrogenase kinase in human PC3 cells incubated for 90 mins by phospho(Ser293)E1alpha MSP ELISA method; assay type: cell-based; conditions: pc-3
[2] = molecular target: [Pyruvate dehydrogenase (acetyl-transferring)] kinase isozyme 1, mitochondrial (Homo sapiens, UniProt Q15118); experiment: Binding affinity to pyruvate dehydrogenase kinase 1 (unknown origin) incubated for 90 mins by VER-00160364 probe based fluorescence polarization assay
Chain of [Pyruvate dehydrogenase (acetyl-transferring)] kinase isozyme 1, mitochondrial (Q15118 whole entry): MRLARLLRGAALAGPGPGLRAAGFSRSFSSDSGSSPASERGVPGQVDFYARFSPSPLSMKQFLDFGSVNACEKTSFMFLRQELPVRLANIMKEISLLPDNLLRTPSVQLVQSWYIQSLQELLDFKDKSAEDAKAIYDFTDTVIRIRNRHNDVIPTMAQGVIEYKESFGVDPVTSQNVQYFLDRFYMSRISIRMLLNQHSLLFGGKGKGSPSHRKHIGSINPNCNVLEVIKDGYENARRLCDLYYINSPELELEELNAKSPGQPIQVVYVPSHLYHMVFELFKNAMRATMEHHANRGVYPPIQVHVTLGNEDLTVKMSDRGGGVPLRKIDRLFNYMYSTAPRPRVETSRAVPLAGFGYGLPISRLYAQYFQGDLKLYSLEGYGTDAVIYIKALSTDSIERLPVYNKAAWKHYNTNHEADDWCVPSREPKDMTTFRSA

COc1ccc(CN(C)C(=O)c2ccc(N(Cc3cc(C)no3)C(=O)c3cc(Cl)c(O)cc3O)cc2)cc1
IC50 [1]: 1 µM
IC50 [2]: 100 nM

COc1cnc(Cl)nc1-c1ccc(N(Cc2ccccc2)C(=O)c2cc(Cl)c(O)cc2O)cc1
IC50 [1]: 0.1 µM
IC50 [2]: 100 nM

Cc1cnc(Cl)nc1-c1ccc(N(Cc2cccnc2)C(=O)c2ccc(O)cc2O)cc1
IC50 [1]: 1 µM
IC50 [2]: 10 nM

Cc1cc(S(=O)(=O)NCc2ccccc2)cnc1-c1ccc(N(Cc2cccnc2)C(=O)c2ccc(O)cc2O)cc1
IC50 [1]: 1 µM
IC50 [2]: 10 nM

CN(Cc1ccc2ccccc2c1)C(=O)c1ccc(N(Cc2cccnc2)C(=O)c2ccc(O)cc2O)cc1
IC50 [1]: 1 µM
IC50 [2]: 10 nM

COc1cnc(Cl)nc1-c1ccc(N(Cc2cccnc2)C(=O)c2ccc(O)cc2O)cc1
IC50 [1]: 1 µM
IC50 [2]: 10 nM

Cc1cc(S(=O)(=O)N2CCOCC2)cnc1-c1ccc(N(Cc2ccsc2)C(=O)c2ccc(O)cc2O)cc1
IC50 [1]: 1 µM
IC50 [2]: 100 nM

Cc1cc(S(=O)(=O)NCc2cccs2)cnc1-c1ccc(N(Cc2cccnc2)C(=O)c2ccc(O)cc2O)cc1
IC50 [1]: 1 µM
IC50 [2]: 10 nM

COC(=O)c1nc(-c2ccc(N(Cc3ccsc3)C(=O)c3ccc(O)cc3O)cc2)c2ccccc2n1
IC50 [1]: 1 µM
IC50 [2]: 100 nM

Cc1cc(S(=O)(=O)NCc2cccnc2)cnc1-c1ccc(N(Cc2ccccc2)C(=O)c2cc(Cl)c(O)cc2O)cc1
IC50 [1]: 1 µM
IC50 [2]: 100 nM

CN(Cc1ccc2nccnc2c1)C(=O)c1ccc(N(Cc2ccsc2)C(=O)c2ccc(O)cc2O)cc1
IC50 [1]: 1 µM
IC50 [2]: 10 nM

Cc1cc(S(=O)(=O)N2CC(F)(F)C2)cnc1-c1ccc(N(Cc2ccccc2)C(=O)c2ccc(O)cc2O)cc1
IC50 [1]: 10 µM
IC50 [2]: 100 nM

Cc1cc(C(=O)N(Cc2ccccc2)c2ccc(C(=O)N(C)C)cc2)c(O)cc1O
IC50 [1]: 1 µM

CCc1cnc(C)nc1-c1ccc(N(Cc2ccsc2)C(=O)c2ccc(O)cc2O)cc1
IC50 [1]: 1 µM

Cc1cnc(Cl)nc1-c1ccc(N(Cc2cccc(CN3CCCCC3)c2)C(=O)c2ccc(O)cc2O)cc1
IC50 [1]: 1 µM
